# Experiments:
# [1] = test system: hSERT (S), hNET (N), hDAT (D); assay: Comparison of binding potency across the three human transporters; details: for Potency (rank order of transporter binding): S = hSERT, N = hNET, D = hDAT, order by KD; for Potency Range: highest KD / lowest KD among hSERT, hNET, hDAT
# Protocol: (§1) HEK-293 cells expressing the recombinant hSERT or hDAT were incubated with Dulbecco's modified Eagles medium (MEM) supplemented with 0.1 mM nonessential amino acid solution for MEM, 5% v/v fetal bovine serum and […] penicillin/streptomycin solution. Cells expressing the hNET transporter were incubated with Dulbecco's modified Eagles medium supplemented with 10% v/v fetal bovine serum and 100 U/mL penicillin/streptomycin solution and 2 mM L-glutamine. All cells were grown until 70-80% confluent on 175 cm^2 flasks in a humidified 10% CO2/90% air environment at 37° C., with the selecting antibiotic Geneticin sulfate at […]. The cells were incubated in 10% CO2, 90% air at 37° C. and 100% humidity.
# (§2) Cell membranes containing hSERT, hNET, or hDAT were prepared from the cell lines to assay ligand binding for each of the transporters. […] The washed cells were incubated for 5 minutes at 37° C. in 10 mL solution 1 containing 100 mM ethylene glycol-bis N,N,N′,N′-tetraacetic acid (EGTA). The cells were then scraped from the flask surface with a rubber spatula, placed into a centrifuge tube, and collected by centrifugation at 1000×g for 5 minutes at 4° C. The resulting supernatant was discarded, and the cell pellet was resuspended in 0.5 to1.0 mL of the appropriate binding buffer (described below). The resuspended cell pellet was homogenized using a Polytron for 10 seconds at setting 6. The resulting homogenate was centrifuged at about 36,000×g for 10 minutes at 4° C. The supernatant was discarded, and the pellet was resuspended in the same volume of the appropriate binding buffer and centrifuged again. The supernatant was discarded, and the final pellet containing cell membranes was resuspended in the appropriate binding buffer and stored at −80° C. until use.
# (§3) Radioligand binding assays for the indicated transporters were performed as follows. To assess binding to the cloned hSERT, cells expressing hSERT were homogenized in 50 mM Tris-HCl with 120 mM NaCl and 5 mM KCl (pH 7.4). The binding reaction consisted of 10 μg cell membrane protein, 1.0 nM [^3H]citalopram (citalopram, [N-methyl-^3H], specific activity 79.0 Ci/mmol; PerkinElmer, Boston, Mass.), and varying concentrations of either unlabeled citalopram or the test compound. A reaction to determine non-specific binding consisted of 10 μg cell membrane protein, 0.5 nM [^3H]citalopram, and 1 μM final concentration of unlabeled citalopram. The reactions were incubated at 22° C. for 60 minutes. Following incubation, the reactions were terminated by rapid filtration through separate GF/B filter strips pretreated with 0.2% polyethylenimine in a 48-well Brandel cell harvester. The cell membrane-containing filter strips were then rinsed five times with ice-cold 0.9% NaCl. After rinsing, individual filters were cut from the strip and placed in a scintillation vial containing 6.5 mL of Redi-Safe (Beckman-Coulter, Fullerton, Calif.). Radioactivity was measured with a Beckman liquid scintillation counter (LS 6000TA).
# (§4) To assess binding to the cloned hNET, cells expressing hNET were homogenized in 50 mM Tris-HCl with 300 mM NaCl and 5 mM KCl (pH 7.4). The binding reaction consisted of 5 μg cell membrane protein, 0.5 nM [^3H]nisoxetine (nisoxetine HCl, [N-methyl-^3H], specific activity 82.0 Ci/mmol; Amersham, Arlington Hts., Ill.), and varying concentrations of either unlabeled nisoxetine or the test compound. A reaction to determine non-specific binding consisted of 5 μg cell membrane protein, 0.5 nM [^3H]nisoxetine, and 1 μM final concentration of unlabeled nisoxetine. The reactions were incubated at 22° C. for 60 minutes. Following incubation, the reactions were terminated by rapid filtration through separate GF/B filter strips pretreated with 0.2% polyethylenimine in a 48-well Brandel cell harvester. The cell membrane-containing filter strips were then rinsed five times with ice-cold 0.9% NaCl.
# [2] = target: T1, human serotonin transporter (hSERT) (Homo sapiens, UniProt P31645); assay: Human transporter radioligand binding, hSERT ([3H]citalopram, HEK-293 membranes); details: HCl salts of test compounds; n ≥ 3, values marked b n = 1; read-out: Equilibrium Dissociation Constant (KD) for Transporter Binding (Geometric Mean; nM ± SEM) hSERT (S)
# T1 construct: expressed in transfected cells; host or cells: HEK-293, stably transfected; membranes
# T1 sequence (P31645 whole entry): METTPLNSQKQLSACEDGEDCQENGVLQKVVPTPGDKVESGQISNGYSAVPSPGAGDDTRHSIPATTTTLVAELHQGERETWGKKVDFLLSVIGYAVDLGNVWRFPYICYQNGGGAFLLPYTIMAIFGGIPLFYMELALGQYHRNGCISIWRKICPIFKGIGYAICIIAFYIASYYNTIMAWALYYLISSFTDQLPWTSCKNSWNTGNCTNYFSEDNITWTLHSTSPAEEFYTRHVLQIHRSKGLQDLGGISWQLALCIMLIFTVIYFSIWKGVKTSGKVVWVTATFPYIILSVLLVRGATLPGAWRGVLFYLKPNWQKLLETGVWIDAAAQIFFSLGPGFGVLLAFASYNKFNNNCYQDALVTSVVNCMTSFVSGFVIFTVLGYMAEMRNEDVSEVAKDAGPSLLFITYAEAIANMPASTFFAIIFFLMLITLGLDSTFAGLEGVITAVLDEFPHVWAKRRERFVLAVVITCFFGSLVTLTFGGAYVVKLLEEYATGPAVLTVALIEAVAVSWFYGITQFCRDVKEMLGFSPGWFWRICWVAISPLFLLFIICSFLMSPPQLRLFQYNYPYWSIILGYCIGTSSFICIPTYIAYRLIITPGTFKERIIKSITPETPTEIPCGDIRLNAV
# Protocol: as §1, §2, §3
# (§5) Following the radioligand binding assays, the data were analyzed using the
# (§6) The program was modified to calculate the Hill coefficient (nH). Data are presented as geometric mean±S.E.M. of at least three independent experiments. One-component models and two-component models were compared using the root mean square error of each fit and the F test.
# [3] = target: T2, human norepinephrine transporter (hNET) (Homo sapiens, UniProt P23975); assay: Human transporter radioligand binding, hNET ([3H]nisoxetine, HEK-293 membranes); details: HCl salts of test compounds; n ≥ 3, values marked b n = 1; read-out: Equilibrium Dissociation Constant (KD) for Transporter Binding (Geometric Mean; nM ± SEM) hNET (N)
# T2 construct: expressed in transfected cells; host or cells: HEK-293, stably transfected; membranes
# T2 sequence (P23975 whole entry): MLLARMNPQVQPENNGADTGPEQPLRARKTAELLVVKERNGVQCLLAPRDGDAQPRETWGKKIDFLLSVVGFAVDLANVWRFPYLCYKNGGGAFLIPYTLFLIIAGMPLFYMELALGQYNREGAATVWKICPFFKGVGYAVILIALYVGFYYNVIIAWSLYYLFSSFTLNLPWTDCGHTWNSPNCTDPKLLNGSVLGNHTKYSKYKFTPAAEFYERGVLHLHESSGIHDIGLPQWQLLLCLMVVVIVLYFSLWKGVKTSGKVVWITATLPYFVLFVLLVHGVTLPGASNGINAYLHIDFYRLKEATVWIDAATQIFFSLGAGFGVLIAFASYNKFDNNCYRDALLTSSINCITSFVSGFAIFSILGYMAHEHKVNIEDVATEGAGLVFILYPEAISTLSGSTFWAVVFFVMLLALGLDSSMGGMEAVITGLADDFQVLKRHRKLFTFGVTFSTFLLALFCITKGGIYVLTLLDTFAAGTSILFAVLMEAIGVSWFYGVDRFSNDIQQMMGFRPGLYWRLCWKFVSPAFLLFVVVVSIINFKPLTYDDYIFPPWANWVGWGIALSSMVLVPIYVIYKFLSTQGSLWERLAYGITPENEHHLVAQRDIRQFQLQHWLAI
# Protocol: as §1, §2
# as §4, with “NaCl. After rinsing, individual filters were cut from the strip and placed in a scintillation vial containing 6.5 mL of Redi-Safe (Beckman-Coulter, Fullerton, Calif.). Radioactivity was measured with a Beckman liquid scintillation counter (LS 6000TA).” for “NaCl.”
# as §5, §6
# [4] = target: T3, human dopamine transporter (hDAT) (Homo sapiens, UniProt Q01959); assay: Human transporter radioligand binding, hDAT ([3H]WIN35428, HEK-293 membranes); details: HCl salts of test compounds; n ≥ 3, values marked b n = 1; read-out: Equilibrium Dissociation Constant (KD) for Transporter Binding (Geometric Mean; nM ± SEM) hDAT (D)
# T3 construct: expressed in transfected cells; host or cells: HEK-293, stably transfected; membranes
# T3 sequence (Q01959 whole entry): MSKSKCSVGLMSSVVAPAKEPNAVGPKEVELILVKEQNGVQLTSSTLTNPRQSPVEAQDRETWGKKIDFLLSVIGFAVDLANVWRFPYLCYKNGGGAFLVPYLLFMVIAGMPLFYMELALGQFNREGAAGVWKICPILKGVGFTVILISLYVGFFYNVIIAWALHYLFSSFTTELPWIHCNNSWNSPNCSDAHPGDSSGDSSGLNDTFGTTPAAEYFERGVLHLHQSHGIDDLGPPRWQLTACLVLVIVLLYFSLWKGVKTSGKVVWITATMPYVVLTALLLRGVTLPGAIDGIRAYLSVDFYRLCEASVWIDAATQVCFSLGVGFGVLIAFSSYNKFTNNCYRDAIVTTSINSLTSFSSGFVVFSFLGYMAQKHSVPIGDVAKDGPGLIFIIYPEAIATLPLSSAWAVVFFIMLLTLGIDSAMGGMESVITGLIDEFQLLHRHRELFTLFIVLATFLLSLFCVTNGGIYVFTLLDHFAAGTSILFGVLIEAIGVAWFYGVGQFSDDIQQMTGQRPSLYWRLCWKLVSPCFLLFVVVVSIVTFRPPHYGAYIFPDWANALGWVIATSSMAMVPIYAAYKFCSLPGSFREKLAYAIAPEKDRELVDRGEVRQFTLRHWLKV
# Protocol: as §1, §2
# To assess binding to the cloned hDAT, cells expressing hDAT were homogenized in 50 mM Tris-HCl with 120 mM NaCl (pH 7.4). The binding reaction contained 15 μg cell membrane protein, 1 nM [^3H]WIN35428 (WIN35428, [N-methyl-^3H], specific activity 85.9 Ci/mmol; PerkinElmer, Boston, Mass.), and varying concentrations of either unlabeled WIN35428 or the test compound. A reaction to determine non-specific binding contained 15 μg cell membrane protein, 1 nM [^3H]WIN35428, and 10 μM final concentration of unlabeled WIN35428. The reactions were incubated at 22° C. for 1 hour. Following incubation, the reactions were terminated by rapid filtration through separate GF/B filter strips pretreated with 0.2% polyethylenimine in a 48-well Brandel cell harvester. The cell membrane-containing filter strips were then rinsed five times with ice-cold 0.9% NaCl. After rinsing, individual filters were cut from the strip and placed in a scintillation vial containing 6.5 mL of Redi-Safe (Beckman-Coulter, Fullerton, Calif.). Radioactivity was measured with a Beckman liquid scintillation counter (LS 6000TA).
# as §5, §6
SMILES,Potency (rank order of transporter binding) [1],Kd [2],Kd [3],Kd [4],Potency Range [1]
"CCOc1ccccc1OC(c1ccccc1)C1CNCCO1 (stereo not shown) [Reboxetine, reference compound]",N > S > D,,,,
"CNCC[C@H](Oc1cccc2ccccc12)c1cccs1 [Duloxetine, reference compound]",S > N > D,,,,
"CNCC(c1ccccc1)C(O)c1ccc(Br)cc1 [MCJ001-Br—Ph—OH-RS/SR, (1R,2S/1S,2R)-1-(4-bromophenyl)-3-(methylamino)-2-phenylpropan-1-ol]",D > S > N,3320 nM,4500 nM,1520 nM,3
"CNC[C@H](c1ccc2ccccc2c1)[C@H](O)c1ccccc1 [PRC200-SS, (1S,2S)-3-(methylamino)-2-(naphthalen-2-yl)-1-phenylpropan-1-ol]",N > S > D,3.8 ± 0.3 nM,0.6 ± 0.2 nM,27 ± 3 nM,45
"CNC[C@@H](c1ccccc1)[C@@H](O)c1ccc2ccccc2c1 [MCJ001-NA-Ph—OH-SS/RR, (1S,1R/2S,2R)-3-(methylamino)-1-(naphthalen-2-yl)-2-phenylpropan-1-ol]",S > > N > D,16 ± 2 nM,1390 nM,5800 ± 400 nM,370
"CN(C)C[C@H](c1ccc2ccccc2c1)[C@@H](F)c1ccccc1 [MCJ002-F-RS, (2S,3R)-3-fluoro-N,N-dimethyl-2-(naphthalen-2-yl)-3-phenylpropan-1-amine]",S > N > D,7 ± 0.5 nM,45 ± 3 nM,280 ± 20 nM,40
"CNC[C@H](c1ccccc1)[C@H](O)c1ccc(F)cc1 [MCJ001-F—Ph—OH-SS/RR, (1S,2S)-1-(4-fluorophenyl)-3-(methylamino)-2-phenylpropan-1-ol]",D > N > S,1260 nM,514 nM,107 nM,12
"CNC[C@H](c1ccc2ccccc2c1)[C@@H](O)c1ccc(F)cc1 [MCJ001-4F—Ph—OH-RS/SR, (1R,2S)-1-(4-fluorophenyl)-3-(methylamino)-2-(naphthalen-2-yl)propan-1-ol]",S > N > D,27 ± 4 nM,49 ± 4 nM,250 ± 40 nM,9
"CN1Cc2c(N)cccc2C(c2ccccc2)C1 (stereo not shown) [Nomifensine, reference compound]",N > D > S,,,,
"CNC[C@H](c1ccccc1)[C@@H](O)c1ccc(F)cc1 [MCJ001-F—Ph—OH-RS/SR, (1R,2S)-1-(4-fluorophenyl)-3-(methylamino)-2-phenylpropan-1-ol]",N > S > D,11900 nM,2660 nM,75200 nM,28
"CN(C)CCCN1c2ccccc2CCc2ccccc21 [Imipramine, reference compound]",S > N > D,,,,
"CCN(CC)C(=O)C1(c2ccccc2)CC1CN (stereo not shown) [Milnacipran, reference compound]",S > N > D,,,,
"CNC[C@H](c1ccc2ccccc2c1)[C@@H](OCCCCCCCO[C@@H](c1ccccc1)[C@H](CNC)c1ccc2ccccc2c1)c1ccccc1 [MCJ001-Dimer7-SS, (2S,2′S,3R,3′R)-3,3′-(heptane-1,7-diylbis(oxy))bis(N-methyl-2-(naphthalen-2-yl)-3-phenylpropan-1-amine)]",N > S > D,50 ± 3 nM,29 ± 1 nM,180 ± 20 nM,6
"CNC[C@H](c1ccc2ccccc2c1)[C@H](O)c1ccc(F)cc1 [MCJ001-4F—Ph—OH-SS/RR, (1S,2S)-1-(4-fluorophenyl)-3-(methylamino)-2-(naphthalen-2-yl)propan-1-ol]",N > S > D,33 ± 5 nM,11 ± 1 nM,90 ± 10 nM,8
"CNC[C@H](c1ccccc1)[C@@H](O)c1ccc2ccccc2c1 [MCJ001-NA-Ph—OH-RS/SR, (1R,2S/1S,2R)-3-(methylamino)-1-(naphthalen-2-yl)-2-phenylpropan-1-ol]",S > N > D,75 ± 2 nM,7620 nM,8900 ± 20 nM,120
"CNCC(c1ccccc1)C(O)c1ccc(Br)cc1 [MCJ001-Br—Ph—OH-SS/RR, (1S,2S/1R,2R)-1-(4-bromophenyl)-3-(methylamino)-2-phenylpropan-1-ol]",,7300 nM,,28400 nM,
"CN(C)C[C@H](c1ccc2ccccc2c1)[C@@H](Cl)c1ccccc1 [MCJ002-Cl-RS, (2S,3R)-3-chloro-N,N-dimethyl-2-(naphthalen-2-yl)-3-phenylpropan-1-amine]",S > N > D,7.4 ± 0.9 nM,90 ± 10 nM,390 ± 30 nM,53
"CN(C)C[C@H](c1ccc2ccccc2c1)[C@H](Cl)c1ccccc1 [MCJ002-Cl-SS, (2S,3S)-3-chloro-N,N-dimethyl-2-(naphthalen-2-yl)-3-phenylpropan-1-amine]",S > N > D,8.3 ± 0.9 nM,50 ± 8 nM,270 ± 30 nM,32

# — US20120220665A1, “Inhibiting Neurotransmitter Reuptake” (MAYO FOUNDATION FOR MEDICAL EDUCATION AND RESEARCH, priority 2009, published 2012)
